Source: patent US9758485B2, “Compounds for controlling arthropods” (priority 2013, dated 2017)

Columns and labels:
Type in all cases: in vivo
[1] = system: Ctenocephalides felis; experiment: Ctenocephalides felis - oral test; conditions: Ctenocephalides felis, po, 48 h; application rate 100 ppm in citrated cattle blood; adult fleas; kill after 2 days; read-out: efficacy
Outline: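 DMSO stock, diluted in citrated cattle blood; ~20 unfed adult fleas feed through parafilm; % kill read at day 2 (0% = none killed).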

[2] = system: Musca domestica; experiment: Musca domestica test; conditions: application rate 100 ppm; adult houseflies; kill after 2 days
Outline: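 10 adult flies per vessel; sugar-solution sponge dosed with active ingredient formulation (DMSO concentrate diluted in water to desired concentration). Read-out: % kill at 2 days.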

[3] = system: Myzus persicae; experiment: Myzus persicae - spray test; conditions: application rate 100 g/ha; Chinese cabbage leaf discs; after 6 days
Procedure: Myzus persicae—Spray Test
Solvent: 78 parts by weight of acetone and 1.5 parts by weight of dimethylformamide
(§1) Emulsifier: alkylaryl polyglycol ether
(§2) To produce an appropriate active ingredient formulation, 1 part by weight of active ingredient is dissolved using the specified parts by weight of solvent and made up with water containing an emulsifier concentration of 1000 ppm until the desired concentration is attained. To produce further test concentrations, the preparation is diluted with emulsifier-containing water.
Discs of Chinese cabbage leaves (Brassica pekinensis) infested by all stages of the green peach aphid (Myzus persicae) are sprayed with an active ingredient formulation of the desired concentration.
After 6 days, efficacy in % is determined. 100% means that all the aphids have been killed; 0% means that none of the aphids have been killed.

[4] = system: Phaedon cochleariae; experiment: Phaedon cochleariae - spray test; conditions: Phaedon cochleariae, foliar, 168 h; application rate 100 g/ha; larvae on Chinese cabbage leaf discs; after 7 days; read-out: efficacy
Procedure: Phaedon cochleariae—Spray Test
Solvent: 78.0 parts by weight of acetone and 1.5 parts by weight of dimethylformamide
as §1, §2
Discs of Chinese cabbage leaves (Brassica pekinensis) are sprayed with an active ingredient formulation of the desired concentration and, after drying, populated with larvae of the mustard beetle (Phaedon cochleariae).
After 7 days, efficacy in % is determined. 100% means that all the beetle larvae have been killed; 0% means that no beetle larvae have been killed.

Cc1cc(C(F)(C(F)(F)F)C(F)(F)F)cc(C)c1-n1cc(-c2ccc(Cl)c(C(=O)NC3CC3)c2)cn1 [I-T3-1, 2-chloro-N-cyclopropyl-5-[1-[2,6-dimethyl-4-[1,2,2,2-tetrafluoro-1-(trifluoromethyl)ethyl]phenyl]pyrazol-4-yl]benzamide]
100%: pest or weed control at 100 ppm [1] | efficacy [2] | efficacy [3] | pest or weed control at 100 g/ha [4]
